The text below walks through data of patent publication US7723301B2, “Pharmaceutical compositions comprising an anti-teratogenic compound and applications of the same” (The Board of Trustees of the University of Arkansas, priority 2007, dated 2010).

Broadly, the EC50 is the concentration at which the effect is half-maximal.

For one data set, the system named is chicken embryos. As to the kind of experiment: Thalidomide-induced limb truncations and microphthalmia in chicken embryos. The class given is in vivo. On the procedure:
Fertilized eggs were purchased from Deindl GmbH, Rietberg-Varensell. They were incubated at 38° C. in a humidified incubator, windowed after one day and staged according to Hamburger and Hamilton (HH stage). Racemic thalidomide (Celgene), thalidomide enantiomers or phthalimide (Sigma) were dissolved in DMSO at 5 mg/ml and further diluted in PBS. Embryos were exposed to drugs by dropping 15 μg-3 mg thalidomide or phthalimide per kg egg weight (about 1-200 μg per embryo) in 50 μl DMSO/PBS as a single dose at HH stages 0-13 onto the embryo. Thalidomide (50 μg) or phthalimide (50 μg) in 10 μl DMSO was injected into the extra-embryonic blood vessels of HH 19 stage embryos. […] Recombinant Noggin, Dkk1 specific goat IgG (R&D Systems) or serum of non-immunized goats (Sigma) was dissolved in 0.1% BSA/0.01% Fast Green/PBS. Noggin (10 or 100 ng), Dkk1 specific goat IgG (5 or 50 ng) or serum of non-immunized goats (50 ng) was applied to a single embryo at HH stages 17-19 by injecting a 10 μl solution through the extra-embryonic membranes.
The morphology of the limbs was studied in specimens fixed in 5% trichloroacetic acid and stained for cartilage with alcian green as described (3).

In data set [1] the test system is limb buds of HH stages 23/24 chicken embryos. As to the kind of experiment: Whole mount TUNEL staining of limb buds. It counts as in vivo. On the procedure:
TUNEL staining was performed as described (7).

In data set [2] the test system is primary limb bud cells (PLBCs). Put plainly: Cell death by trypan blue staining in PLBCs. It counts as cell-based, chicken. On the procedure:
Primary limb bud cells (PLBCs) were isolated from 60 pooled wing and hindlimb buds of HH stages 23/24 embryos. Fibroblasts were gained from HH stage 34 chicken embryos or from 13.5 d.p.c. mouse embryos. Human embryonic fibroblasts were provided by Matthias Maass (2). Before adding reagents, all cell types were cultured for 16 hours in D-MEM (Gibco) plus 10% fetal calf serum (FCS) and 2% chicken serum. Treatment with thalidomide, phthalimide, recombinant human (rh) BMP4 (300 ng/ml; R&D Systems), juglone (5 μM; Sigma), recombinant mouse Noggin (30, 300, 1000 ng/ml in FIG. 4B; 300 ng/ml in FIGS. 4C and 6A), anti-human-DKK1 antibody (35, 350 and 1000 ng/ml in FIG. 4B; 350 ng/ml in FIGS. 4C and 6A), LiCl (3, 30, 60 mM in FIG. 4B; 30 mM in FIGS. 4C, 6A and 6C) and/or (2Z,3E)-6-Bromoindirubin-3-oxime (BIO, Gsk3-Inhibitor IX; 50, 500, 1000 nM in FIG. 4B; 500 nM in FIG. 6A; 50 and 500 nM in FIG. 6C; Calbiochem) were performed in Optimem1 (Invitrogen) plus 1% FCS. Unless otherwise noted, all treatments with thalidomide and rh-BMP4 and associated controls were done for six hours. Inhibitors were applied once at the beginning of incubation with the exception of LiCl that was added 150 minutes before harvesting the cells for further analyses. Pre-treatment with phenyl-N-t-butylnitrone (PBN; 2 mM; Sigma) was performed for one hour. Incubations with juglone were performed for two hours, if applicable, after a pre-treatment with PBN, Noggin, anti-Dkk1 antibody, LiCl or Gsk3-Inhibitor IX for one hour.
Cell death in PLBCs, CEFs, MEFs and HEFs was detected by staining with trypan blue (0.1% (w/v) in PBS; Sigma) for 90 seconds. Cells were counted in a counting chamber to determine the ratio of dead to live cells.

Where [3] appears, read: chicken, in vivo, 7 day of incubation.

With `O=C1CCC(N2C(=O)c3ccccc3C2=O)C(=O)N1` (racemic) [thalidomide, 2-(2,6-dioxo-3-piperidyl)isoindole-1,3-dione], the “embryonic lethality in comparison to solvent controls” value with chicken embryos (750 μg/kg egg weight, HH stages 4/5, first seven days) is recorded as “did not significantly increase embryonic lethality”. In addition, the “EC50 for induction of limb and eye defects” value in the data set with chicken embryos (applied at HH stages 4/5) was found to be 50 μg/kg egg weight. In the data set on chicken embryos (chicken, in vivo), the “dose inducing a maximum of limb truncations and microphthalmia” value amounted to 750 μg/kg egg weight; the “other limb malformations (fusion at the level of the metacarpal cartilage, abducted legs), frequency in total” value was “observed, but at a much lower frequency (in total 4%, data not shown)”. Further, in the data set on chicken embryos (setting [3]), the “embryos showing both limb abnormalities and microphthalmia” value is “about 5%”; the “embryos with uni- or bilateral microphthalmia” value is reported as 21%. Also, in the data set with chicken embryos (in vivo), the “effect of increasing the amount up to 3 mg/kg egg weight” value is “neither influenced the quality nor the quantity of limb truncations or microphthalmia”; the “frequency of limb truncations and microphthalmia on application at later stages” value was “clearly reduced the frequency of limb truncations and microphthalmia”. Moreover, the “limb buds with enlarged ANZ (whole mount TUNEL staining)” value in data set [1] (HH stages 23/24 embryos) is listed as 22 of 40. Further, the “individual limb buds with enhanced PCD (TUNEL)” value in data set [1] (chicken, in vivo) stood at 53%. Besides, the “maximum of cell death in PLBCs” value in data set [2] (38.7 μM (10 μg/ml), six to eight hours) is on record as “about 6 -fold above control”. The concentration for a half-maximal effect (EC50) in data set [2] (Gallus gallus, 6 h, treated for six hours, read-out: EC50 for induction of PCD in PLBCs) was determined as 5 µM.
